Experimental data: patent US11945794B2, “Nuclear transport modulators and uses thereof” (Karyopharm Therapeutics Inc., priority 2013, dated 2024)

How the values were obtained:
Assay in all cases: MTT assay panel
Assay type in all cases: cell-based
RL = details: Homo sapiens; RL cells, 72 hours
Method: (§1) Compound 124 was further tested against a panel of selected solid and hematological cancer cell lines and selected normal cell lines in an MTT assay. Briefly, the various cell lines above were plated at different densities on day 1. […] Cell Titer AQueous One was added to each well, and the plates were read in a plate reader at OD 495.

Daudi = details: Homo sapiens; Daudi cells, 72 hours
Method: as §1

MDA-MB-361 = details: Homo sapiens; MDA-MB-361 cells, 72 hours
Method: as §1

CAPAN-1 = details: Homo sapiens; CAPAN-1 cells, 72 hours
Method: as §1

SW-480 = details: Homo sapiens, SW480; SW-480 cells, 72 hours
Method: as §1

U118MG = details: Homo sapiens, U-118-MG; U118MG cells, 72 hours
Method: as §1

HCT116.1 = HCT116.1 cells, 72 hours
Method: as §1

NCI-H1650 = details: Homo sapiens; NCI-H1650 cells, 72 hours
Method: as §1

Z-138 = details: Homo sapiens; Z-138 cells, 72 hours
Method: as §1

SW-620 = details: Homo sapiens; SW-620 cells, 72 hours
Method: as §1

HEL.92.1.7 = details: Homo sapiens; HEL.92.1.7 cells, 72 hours
Method: as §1

OCIAML5 = details: Homo sapiens, OCI-AML-5; OCIAML5 cells, 72 hours
Method: as §1

NCI-H889 = details: Homo sapiens; NCI-H889 cells, 72 hours
Method: as §1

Pfieffer = Pfieffer cells, 72 hours
Method: as §1

NCI-H2030 = details: Homo sapiens; NCI-H2030 cells, 72 hours
Method: as §1

HCT116 = details: Homo sapiens, HCT-116; HCT116 cells, 72 hours
Method: as §1

AU-565 = details: Homo sapiens, AU565; AU-565 cells, 72 hours
Method: as §1

NCI-H187 = details: Homo sapiens; NCI-H187 cells, 72 hours
Method: as §1

NCI-H1993 = details: Homo sapiens; NCI-H1993 cells, 72 hours
Method: as §1

ANBL-6 = details: Homo sapiens; ANBL-6 cells, 72 hours
Method: as §1

HeLa = details: Homo sapiens; HeLa cells, 72 hours
Method: as §1

MO7e = MO7e cells, 72 hours
Method: as §1

PATU-8988S = PATU-8988S cells, 72 hours
Method: as §1

SW-1417 = details: Homo sapiens, SW1417; SW-1417 cells, 72 hours
Method: as §1

HEP3B = details: Homo sapiens; HEP3B cells, 72 hours
Method: as §1

TF-1 = details: Homo sapiens; TF-1 cells, 72 hours
Method: as §1

THP1 = details: Homo sapiens, THP-1; THP1 cells, 72 hours
Method: as §1

HT1080 = details: Homo sapiens, HT-1080; HT1080 cells, 72 hours
Method: as §1

DB = details: Homo sapiens; DB cells, 72 hours
Method: as §1

PANC-10.05 = details: Homo sapiens, Panc1005; PANC-10.05 cells, 72 hours
Method: as §1

MSTO-211H = details: Homo sapiens; MSTO-211H cells, 72 hours
Method: as §1

NCI-H2170 = details: Homo sapiens; NCI-H2170 cells, 72 hours
Method: as §1

Calu-6 = details: Homo sapiens; Calu-6 cells, 72 hours
Method: as §1

SW-837 = details: Homo sapiens, SW837; SW-837 cells, 72 hours
Method: as §1

SW-403 = details: Homo sapiens; SW-403 cells, 72 hours
Method: as §1

DLD-1 = details: Homo sapiens; DLD-1 cells, 72 hours
Method: as §1

NCI-H1563 = details: Homo sapiens; NCI-H1563 cells, 72 hours
Method: as §1

Colo-205 = details: Homo sapiens; Colo-205 cells, 72 hours
Method: as §1

PL-45 = details: PL45; PL-45 cells, 72 hours
Method: as §1

IC50 (Daudi): 8 nM
IC50 (MDA-MB-361): > 10000 nM
IC50 (SW-480): 10000 nM
IC50 (HCT116.1): 200 nM
IC50 (NCI-H1650): > 10000 nM
IC50 (SW-620): 420 nM
IC50 (NCI-H889): 1020 nM
IC50 (NCI-H2030): 2050 nM
IC50 (HCT116): 110 nM
IC50 (NCI-H187): 530 nM
IC50 (NCI-H1993): > 10000 nM
IC50 (HeLa): 1050 nM
IC50 (SW-1417): > 10000 nM
IC50 (HEP3B): 300 nM
IC50 (THP1): 3380 nM
IC50 (HT1080): 310 nM
IC50 (PANC-10.05): 990 nM
IC50 (NCI-H2170): 2140 nM
IC50 (Calu-6): 1270 nM
IC50 (SW-837): 500 nM
IC50 (SW-403): 910 nM
IC50 (DLD-1): 800 nM
IC50 (NCI-H1563): 7820 nM
IC50 (Colo-205): 120 nM
SMILES: NC(=O)/C(=C/n1cnc(-c2cc(C(F)(F)F)cc(C(F)(F)F)c2)n1)c1cncnc1 [Compound 124, (E)-3-(3-(3,5-bis(trifluoromethyl)phenyl)-1H-1,2,4-triazol-1-yl)-2-(pyrimidin-5-yl)acrylamide]
IC50 (RL): 20 nM
IC50 (CAPAN-1): 20 nM
IC50 (U118MG): 370 nM
IC50 (Z-138): 6 nM
IC50 (HEL.92.1.7): 230 nM
IC50 (OCIAML5): 40 nM
IC50 (Pfieffer): 140 nM
IC50 (AU-565): 490 nM
IC50 (ANBL-6): 220 nM
IC50 (MO7e): 20 nM
IC50 (PATU-8988S): 10000 nM
IC50 (TF-1): 110 nM
IC50 (DB): 60 nM
IC50 (MSTO-211H): 70 nM
IC50 (PL-45): 6940 nM
